Measured values published in patent US20040143025A1, “Carbon monoxide generating compunds for treatment of vascular, inflammatory and immune disorders” (priority 2002, published 2004).

Legend:
[1] = mice exposed to gaseous CO at 500 ppm
Protocol: To examine the effect of gaseous CO on the immune system, C57/BL6 mice (B6, Jackson Laboratory, Bar Harbor, Me.) were first exposed to 500 ppm CO in air (Praxair, Danbury, Conn.) for one hour in a sealed chamber before injection of lipopolysaccharide (LPS) (0.3 mg/kg, i.v., Sigma, St Louis, Mo.). After injection, they were exposed to another hour in the CO chamber. Blood samples were collected one hour after LPS injection (through the aortic artery) and the COHb level in whole blood was measured by a whole blood AVOXimeter 4000 (A-VOX Systems, San Antonio, Tex.). Serum samples were separated and were kept at −80° C. until analysis. Serum TNF-α was measured by sandwich ELISA (Biosource, Camarillo, Calif.).
To reveal the therapeutic potential of CO generators, methylene chloride (MC, Sigma, St. Louis, Mo.) was selected as a lead compound. Different concentrations of MC were prepared by using olive oil as a solvent. Mice were treated with MC at 5 mg/kg., 50 mg/kg, and 500 mg/kg, p.o., one hour before LPS administration.

Myeloperoxidase (MPO) = Myeloperoxidase (MPO) assay, neutrophil activity in liver tissue; parameters: species or system Sprague Dawley (SD) rats; conditions: liver tissue at conclusion of 2 h reperfusion with CO
Protocol: Myeloperoxidase (MPO) assay. MPO is a naturally occurring constituent of neutrophils and is used as a marker for neutrophil infiltration. Frozen tissue samples were thawed and suspended in an iced solution of 0.5% hexadecyltrimethyl-ammonium (Sigma) and 50 mMol potassium phosphate buffer solution (Sigma) with pH adjusted to 5. Samples are homogenized for 30 sec, centrifuged at 15,000 rpm for 15 min at 4° C. 0.1 ml of the supernatant was then mixed in solution of hydrogen peroxide-sodium acetate and tetramethyl benzidine (Sigma). The change in absorbance at 460 run was measured with a Beckman DU spectrophotometer (Beckman Institute, Fullerton, Calif.). The quantity of enzyme degrading 1 μMol peroxide per minute at 25° C. per gram of tissue was defined as one unit of MPO activity.

HO-1 = test: ELISA for HO-1 protein expression in liver; parameters: species or system rat; conditions: ZnPP = pretreatment then CO perfusion; CO = CO only
Protocol: ELISA for HO-1 protein expression. Livers were homogenized on ice in a Tris-HCl lysis buffer (pH 7.4) containing 0.5% Triton X-100 and protease inhibitors. Flat-bottom microtiter 96-well plates (Nunc) were coated with 7 μg/ml anti-HO-1 mAb (OSA-111, Stressgen, Canada) in PBS for 18 h at room temperature. Unbound Ab was removed by washing (wash buffer: 0.05% Tween 20 in 50 mM phosphate buffer, pH 7.5) and remaining binding sites were blocked by incubation with a 5% BSA/PBS solution (1 h). Recombinant HO-1 (SPP-730) and tissue homogenate were diluted in assay diluent (0.5% BSA/0.05% Tween 20/PBS) and incubated in anti-HO-1 mAb coated wells for 1 h at room temperature. Subsequently, plates were washed three times with wash buffer and incubated with rabbit anti-HO-1 polyclonal antibody (SPA-895, Stressgen; diluted 1:1000 in assay diluent) for 30 min at room temperature. Bound rabbit IgG was detected with a donkey anti-rabbit (gG-HRP conjugate (711-035-152, Jackson Research Laboratories; diluted 1:8000 in assay diluent). Unbound secondary Ab was removed by washing and bound HRP was detected using 1 mg/ml OPD in substrate buffer (0.1% H2O2, 0.1 M citric acid, 0.2 M Na2HPO4, pH 5.0). The color reaction was stopped with 1 M HCl and the optical density at 490 nm was measured.

[2] = Systemic COHb and blood chemistry after oral methylene chloride in rats; assay type: in vivo, rat; conditions: MC-treated rats, 500 mg/kg daily
Protocol: MC (Sigma, St. Louis, Mo.) was diluted in olive oil and administered orally on a daily basis (from day 0 to 30) at 500 mg/kg. This dose saturates the cytochrome P-450 oxidative system, and yields maximal COHb values of 10% COHb in venous or aortic blood. Gargas et al. and Andersen et al., supra; Wirkner et al., Toxicol. App. PharmacoL 143:83-88 (1997). […] Id. […] Kirschman, Fd. Chem. Toxic. 24:943-49 (1986); Dhillon and Von Burg, Toxicology Update 1:329-35 (1995). MC may show liver and central nervous system toxicity at higher doses and/or longer exposures. Id. COHb levels were evaluated in heparinized venous blood using the VOXimeter sensor (A-VOX Systems, San Antonio, Tex.) and expressed as the percentage of total hemoglobin. Bicarbonates, soluble CO2, total CO2 and pH were measured using standard clinical biochemistry techniques (Laboratory of Biochemistry, University Hospital of Nantes).

| Structure (SMILES) | O2Hb levels [1] [%] | MPO activity (Myeloperoxidase (MPO)) [U/mg] | HO-1 protein expression in liver samples (ELISA) (HO-1) | behavior, food consumption, gross necropsy [2] |
| --- | --- | --- | --- | --- |
| [C-]#[O+] [CO, carbon monoxide] | 79.18±1.569 | 1.3±0.2 | 7.51±2.13 ng of HO-1/mg lysate | – |
| ClCCl [methylene chloride] | – | – | – | normal behavior, food consumption and no particular gross necropsy alterations |
